According to article PMC5713674, “Meditope–Fab interaction: threading the hole” (Acta Crystallographica. Section F, Structural Biology …, 2017):
pKd: −log10 of the molar value. Read-outs that look alike come from different tables or passages of the source.

Columns and labels:
cetuximab [1] = experiment: Surface plasmon resonance (Biacore T100) binding kinetics of meditope variants to immobilised cetuximab IgG; settings: 25°C; for k a / k d: pH 7.4, HBS-EP+
Description: All surface plasmon resonance (SPR) experiments were performed on a GE Biacore T100 instrument (GE Healthcare) at 25°C as described previously (Bzymek, Avery et al., 2016[▸]; Bzymek, Ma et al., 2016[▸]). Briefly, cetuximab IgG ligand was amine-coupled to CM5 chips using acetate buffer pH 5.5 at a density of 5000 RU. Analytes were prepared in GE buffer HBS-EP+ [10 mM HEPES pH 7.4, 150 mM NaCl, 3 mM EDTA, 0.05%(v/v) surfactant P20]. Kinetics experiments were carried out at a flow rate of 30 µl min^−1 using HBS-EP+ as both the running and regeneration buffer. Experimental data were processed using Biacore T100 Evaluation software v.2.0.1. Purified peptides were dissolved in water and extensively dialyzed to remove any residual TFA, and their concentration was determined as described previously (Bzymek, Ma et al., 2016[▸]).

cetuximab [2] = experiment: as above; settings: SPR, 25°C, at pH 5.5
cetuximab [3] = tested on: cetuximab; design: method as in Bzymek, Ma et al. (2016); settings: SPR, 25°C, pH 7.4; ref Bzymek, Ma et al. (2016); cited from earlier work

CC(C)C[C@@H]1NC(=O)[C@H](CCCNC(=N)N)NC(=O)[C@H](CCCNC(=N)NCCCN)NC(=O)[C@H]([C@@H](C)O)NC(=O)[C@H](CO)NC(=O)[C@H](CC(C)C)NC(=O)[C@H](CC(=O)O)NC(=O)[C@H](Cc2ccccc2)NC(=O)[C@H](CCC(N)=O)NC(=O)CCCCCCNC(=O)[C@H](CCCCN)NC1=O [(AHA)QFDLSTR(PrNH2)RLK, aminoheptanoic acid-linked N-(3-aminopropyl)-L-arginine meditope variant]
k a (cetuximab [1]; SPR): 1.2 M^−1 s^−1 × 10^4
k d (cetuximab [1]; SPR): 0.110 s⁻¹

CCCCNC(=N)NCCC[C@@H]1NC(=O)[C@H]([C@@H](C)O)NC(=O)[C@H](CO)NC(=O)[C@H](CC(C)C)NC(=O)[C@H](CC(=O)O)NC(=O)[C@H](Cc2ccccc2)NC(=O)[C@H](CCC(N)=O)NC(=O)CCCCCCNC(=O)[C@H](CCCCN)NC(=O)[C@H](CC(C)C)NC(=O)[C@H](CCCNC(=N)N)NC1=O [(AHA)QFDLSTR(nBu)RLK, aminoheptanoic acid-linked n-butylarginine meditope variant]
k a (cetuximab [1]; SPR): 2.2 M^−1 s^−1 × 10^4
k d (cetuximab [1]; SPR): 0.060 s⁻¹
change of half-life of the complex versus nonmodified AHA-cyclized meditope (in words) (cetuximab [1]; t = ln(2)/k d, HBS-EP+ pH 7.4): slightly reduced

CC(C)C[C@@H]1NC(=O)[C@H](CCCNC(=N)N)NC(=O)[C@H](CCCNC(=N)N)NC(=O)[C@H]([C@@H](C)O)NC(=O)[C@H](CO)NC(=O)[C@H](CC(C)C)NC(=O)[C@H](CC(=O)O)NC(=O)[C@H](Cc2ccccc2)NC(=O)[C@H](CCC(N)=O)NC(=O)CCCCCCNC(=O)[C@H](CCCCN)NC1=O [reference compound]
k a (on-rate) (cetuximab [1]; SPR, pH 7.4): 25000 M⁻¹ s⁻¹
k a (cetuximab [1]; SPR): 2.5 M^−1 s^−1 × 10^4
k d (cetuximab [1]; SPR): 0.046 s⁻¹
k a (cetuximab [2]): 2.0 M^−1 s^−1 × 10^4
k d (cetuximab [2]): 0.075 s⁻¹

CC(C)C[C@@H]1NC(=O)[C@H](CCCNC(=N)N)NC(=O)[C@H](CCCNC(=N)NCCC(=O)O)NC(=O)[C@H]([C@@H](C)O)NC(=O)[C@H](CO)NC(=O)[C@H](CC(C)C)NC(=O)[C@H](CC(=O)O)NC(=O)[C@H](Cc2ccccc2)NC(=O)[C@H](CCC(N)=O)NC(=O)CCCCCCNC(=O)[C@H](CCCCN)NC1=O [(AHA)QFDLSTR(EtCOOH)RLK, aminoheptanoic acid-linked N-carboxyethylarginine meditope variant]
pKd (cetuximab [2]): 4.49
k a (cetuximab [2]): 0.06 M^−1 s^−1 × 10^4
k d (cetuximab [2]): 0.020 s⁻¹

CC(C)C[C@@H]1NC(=O)[C@H](CCCNC(=N)N)NC(=O)[C@H](CCCNC(=N)NCCCO)NC(=O)[C@H]([C@@H](C)O)NC(=O)[C@H](CO)NC(=O)[C@H](CC(C)C)NC(=O)[C@H](CC(=O)O)NC(=O)[C@H](Cc2ccccc2)NC(=O)[C@H](CCC(N)=O)NC(=O)CCCCCCNC(=O)[C@H](CCCCN)NC1=O [(AHA)QFDLSTR(PrOH)RLK, aminoheptanoic acid-linked N-(3-hydroxypropyl)-L-arginine meditope variant]
k a (cetuximab [1]; SPR): 1.2 M^−1 s^−1 × 10^4
k d (cetuximab [1]; SPR): 0.027 s⁻¹
increase in the half-life of the complex over the nonmodified AHA-cyclized meditope (cetuximab [1]; t = ln(2)/k d, HBS-EP+ pH 7.4): 1.7 fold

CCCCCCCCNC(=N)NCCC[C@@H]1NC(=O)[C@H]([C@@H](C)O)NC(=O)[C@H](CO)NC(=O)[C@H](CC(C)C)NC(=O)[C@H](CC(=O)O)NC(=O)[C@H](Cc2ccccc2)NC(=O)[C@H](CCC(N)=O)NC(=O)CCCCCCNC(=O)[C@H](CCCCN)NC(=O)[C@H](CC(C)C)NC(=O)[C@H](CCCNC(=N)N)NC1=O [(AHA)QFDLSTR(nOc)RLK, aminoheptanoic acid-linked n-octylarginine meditope variant]
k a (cetuximab [1]; SPR): 0.93 M^−1 s^−1 × 10^4
k d (cetuximab [1]; SPR): 0.079 s⁻¹
change of half-life of the complex versus nonmodified AHA-cyclized meditope (in words) (cetuximab [1]; t = ln(2)/k d, HBS-EP+ pH 7.4): slightly reduced

CQFDLSTRRLKC
k a (cetuximab [3]): 8.8 M^−1 s^−1 × 10^4
